Measured values published in US5248771A, “Process for preparing no-carrier-added radiohalogenated vinyl nucleosides” (Triumf, priority 1991, dated 1993).
Where two headings read alike, the source gives them in different places.

Assays:
[1] = cited from earlier work
[2] = cited from earlier work; remark: listed apart in the source
herpes virus = settings: depending on the strain of herpes virus; cited from earlier work
herpes infected tissue = settings: S. Sacks, Abstract 97, 1988 Interscience Conference; cited from earlier work
HSV-1 (ATCC Strain F) = test: [125I]IVaraU uptake into HFF cells infected with HSV-1, gamma activity per tube; type: cell-based, HSV-1; HFF (Human Foreskin Fibroblast) cells; settings: HSV-1 (ATCC Strain F) infected HFF cells, MOI 1.0, 2.3×10^6 cpm/ml, 6 hours, 37° C.
Experimental: (§1) Upright roller tubes were seeded with 1.5×10^5 HFF (Human Foreskin Fibroblast) cells/tube in a volume of 1.0 ml of Minimal Essential Medium (MEM) with added 5% FCS (Fetal Calf Serum) and incubated at 37° C. overnight. The growth media was poured off and replaced with 1.0 ml of viral growth media (Med 199 Hank's salts with 2% FCS) containing ^125 I-IVaraU (2.3×10^6 cpm/ml). 100 μl of virus (diluted to appropriate concentration in viral growth media) was added to assay tubes. In this case, a multiplicity of infection of 1.0 was used. 100 μl of viral growth media was added to the control (viral uninoculated) tubes.
(§2) The tubes were centrifuged 5000 g×30 minutes at 37° C., incubated at 37° C., 5% CO2 for 6 hours, and the media was then poured off. The tubes were washed with 4×2 mls warm "cell" phosphate buffered saline (PBS), and 1.0 ml of trypsin-versene solution was added and the tubes were incubated at 37° C. for 5-10 minutes. The cell sheets were removed and transferred to 4 ml polystyrene tubes. The gamma activity was counted with a Gamma counter.

HSV-2 (ATCC Strain G) = test: [125I]IVaraU uptake into HFF cells infected with HSV-2, gamma activity per tube; type: cell-based, HSV-2; HFF (Human Foreskin Fibroblast) cells; settings: HSV-2 (ATCC Strain G) infected HFF cells, MOI 1.0, 2.3×10^6 cpm/ml, 6 hours, 37° C.
Experimental: as §1, §2

[3] = tested on: HFF (Human Foreskin Fibroblast) cells; test: [125I]IVaraU uptake into uninoculated HFF cells (control), gamma activity per tube; type: cell-based; settings: 2.3×10^6 cpm/ml, 6 hours, 37° C.
Experimental: as §1, §2

HSV 1 infected cells = test: uptake of [125I]IVaraU by HSV 1 infected cells compared with uninfected and HSV 2 infected cells; type: cell-based
Experimental: as §1
as §2, with “counter. […]” for “counter.”

in vivo = test: in vivo; design: species or system HSV1; A/J mice; settings: mouse, in vivo, iv, 1 μCurie in 100 μL i.v. tail vein, read-out: brain uptake, % dose per gram in entire brain
Excerpt: (§3) This example measured the biodistribution of [^125 I]-IVaraU in the bodies of mice infected with HSV throughout the entire body. The brain was emphasized. Various uninfected controls were included to make the interpretation clear.
(§4) […] strain A/J mice were used in all: (i) with [^125 I]IVaraU, 20 mice received HSV1 and 20 mice were uninfected; and (ii) with [^125 I]NaI (a control compared to IVaraU), again 20 mice received HSV1 and 20 mice were uninfected.
(§5) INFECTION: Seven days prior to injection of the drug, each A/J mouse was inoculated by scratching the lip and applying a suspension of herpes simplex virus 1 (HSV1); this was the Kastrukoff murine-adapted strain of HSV1. This inoculation technique is a literature technique which has been established to cause herpes foci of herpes infection in the brains of over 99% of mice so inoculated. See Kastrukoff LF, Lau AS, and Puterman ML. J Gen Virol 67 (1986) 613-621. The HSV1 inoculation may be considered to take place at time "zero minus seven days". ADMINISTRATION OF THE RADIOPHARMACEUTICAL: The mice were divided into four experimental groups based on the two variables +/- HSV1, and IVaraU/NaI. The infected mice were being compared to non-infected mice. The radiopharmaceutical ([^125 I]IVaraU or [^125 I]NaI) was diluted to give 1μ Curie per 100 μL. 100 μL was then injected into the tailvein of each mouse. (Injection may be considered to take place at "time zero".) ANALYSIS OF INDIVIDUAL BODY ORGANS: At times 1h, 4h, 24h, and 48h, 5 mice were taken from each experimental group and sacrificed by exsanguination (the carotid artery was severed with a surgical scalpel). Blood was collected. Each animal was dissected, and the following organs were removed: brain, liver, kidney, pancreas, spleen, stomach, heart, lung, and muscle. Each organ or tissue specimen was weighed and then ^125 I activity was counted in a gamma ray counter. From the data weight, ^125 I, and ^125 I injected dose result values of "% dose per gram" were calculated for the different tissue specimens.

[4] = tested on: herpes simplex virus 1 (HSV1); test: in vivo; design: species or system HSV1; A/J mice
Excerpt: as §3, §4, §5

HSV1 strain KOS = test: [125I]IVaraU uptake in rabbit brain infected with HSV1, gamma counts of brain blocks; type: in vivo, HSV1; New Zealand White rabbits
Experimental: The rabbit brains were infected with HSV1and then [^125 I]IVaraU was injected. The infection was located by assaying for herpes antigen and also by considering the brain anatomy involved. The assay was performed for [^125 I]IVaraU by gamma ray counts on segments cut from the brain.
INFECTION: Three New Zealand White female rabbits ([…], 2.5-5.0 kg) were anaesthetized by standard intramuscular injections of ketamine and xylazine. A 3.5 inch french tomcat catheter was introduced into the right nostril and 100 μL of the virus inoculation solution was released onto the right cribiform plate (this is a non-invasive means to create a brain infection). The virus inoculation solution consisted of 3.7×10^6 plaque forming units per mL HSV1 strain KOS suspended in commercial media of the type "199 with Hanks' salts". Two rabbits denoted "A" and "B" received the virus suspension exactly as described. A third rabbit denoted "C" was a "control"; it received 100 μL "199 with Hanks' salts" but no virus. The three rabbits were returned to their cages; infection was allowed to develop for 5 days before the injection of [^125 I]VaraU was carried out. INJECTION OF DRUG: 5 days following HSV1 inoculation, each rabbit was given 0.1 to 0.2 millicuries [^125 I]IVaraU suspended in 1 mL standard phosphate buffered saline PBS). The drug was administered by injection into the right marginal ear vein. SACRIFICE OF THE RABBITS: 24H after the [^125 I]IVaraU injection, the rabbits were sacrificed by an overdose of the drug Somnotol (T.M.) (MTC Pharmaceuticals). Following death, each rabbit was perfused with 300-400 mL PBS introduced into the ascending aorta. (The perfusion procedure served to remove blood from vessels in the brain and the body in general.)
The skull was dissected; the brain was cut out and removed. The brain was then sectioned into thirty 0.5 cm thick coronal blocks. The cutting and numbering of the blocks was carried out in a systematic way with respect to brain anatomy. Brain blocks were immersed and stored in 10% formalin. COUNTING OF ^125 I ACTIVITY IN BRAIN BLOCKS: Each block was weighed and then counted in a well-type gamma ray counter. The "counts per minute per gram" was calculated for each block of tissue for rabbits "A", "B" and "C". From each "cpm per gram" in infected rabbits "A" and "B" was subtracted the "cpm per gram" in the corresponding brain block from the uninfected rabbit "C". (The typical value of "cpm per gram" was about 20,000 cpm per gram in rabbit "C".)

Compound: O=c1[nH]c(=O)n([C@@H]2O[C@H](CO)[C@@H](O)[C@@H]2O)cc1/C=C/Br [BrVaraU, (E)-5(2 bromo vinyl)-arabinofuranosyl uracil]
- metabolic stability in vivo [1]: appeared metabolically stable in vivo

Compound: O=c1[nH]c(=O)n([C@@H]2O[C@H](CO)[C@@H](O)[C@@H]2O)cc1/C=C/Cl [ClVaraU]
- potency in vivo per unit weight [2]: less potent in vivo

Compound: O=c1[nH]c(=O)n([C@@H]2O[C@H](CO)[C@@H](O)[C@@H]2O)cc1/C=C/F [FVaraU]
- potency in vivo per unit weight [2]: less potent in vivo

Compound: O=c1[nH]c(=O)n([C@@H]2O[C@H](CO)[C@@H](O)[C@@H]2O)cc1/C=C/I [IVaraU]
- concentration effectively inhibiting herpes virus (herpes virus): approximately 1×10^-9 g/mL
- potency in vivo per unit weight [2]: highly potent in vivo per unit weight
- metabolic stability in vivo [1]: appeared metabolically stable in vivo

Compound: O=c1[nH]c(=O)n([C@@H]2O[C@H](CO)[C@@H](O)[C@@H]2O)cc1/C=C/[123I] [[^123 I]IVaraU]
- concentrated in herpes infected tissue (herpes infected tissue): concentrated in herpes infected tissue

Compound: O=c1[nH]c(=O)n([C@@H]2O[C@H](CO)[C@@H](O)[C@@H]2O)cc1/C=C/[125I] [[^125 I]IVaraU]
- Activity/Tube (Average) (HSV-1 (ATCC Strain F)): 59,914 cpm
- Activity/Tube (Average) (HSV-2 (ATCC Strain G)): 14,462 cpm
- Activity/Tube (Average) [3]: 1,332 cpm
- uptake by HSV 1 vs HSV 2 infected cells (HSV 1 infected cells; HSV 1 vs HSV 2 infected cells): HSV 1 infected cells took up more radio compound than HSV 2 infected cells
- specific uptake by HSV 1 infected cells (HSV 1 infected cells; vs uninfected cells): taken up specifically by HSV 1 infected cells, as compared with uninfected cells
- tissue uptake at 1 h (in vivo; Infected): 1.49 %ID/g
- tissue uptake at 4 h (in vivo; Infected): 0.36 %ID/g
- tissue uptake at 24 h (in vivo; Infected): 0.0379 %ID/g
- tissue uptake at 48 h (in vivo; Infected): 0.0181 %ID/g
- tissue uptake at 1 h (in vivo; Uninfected): 1.27 %ID/g
- tissue uptake at 4 h (in vivo; Uninfected): 0.229 %ID/g
- tissue uptake at 24 h (in vivo; Uninfected): 0.0024 %ID/g
- tissue uptake at 48 h (in vivo; Uninfected): 0.0005 %ID/g
- brain uptake Ratio infected/uninfected ([4]; 1H): 1.18
- brain uptake Ratio infected/uninfected ([4]; 4H): 1.57
- brain uptake Ratio infected/uninfected ([4]; 24H): 15.8
- brain uptake Ratio infected/uninfected ([4]; 48H): 36.2
- (corrected) activities in brain regions (HSV1 strain KOS; infected rabbits A and B minus uninfected C, forebrain): higher in the forebrain, especially in the olfactory lobes
- activities towards the hindbrain (HSV1 strain KOS; infected rabbits, corrected): approached background
- activity in right olfactory lobe vs trigeminal ganglia and Level 1 (HSV1 strain KOS; infected rabbits, corrected): higher than in the trigeminal ganglia and Level 1
- activity in right vs left olfactory lobe (HSV1 strain KOS; infected rabbits, corrected, virus given in right nostril): higher in the right olfactory lobe than the left
- typical cpm per gram in brain blocks of uninfected rabbit C (HSV1 strain KOS; uninfected rabbit "C", 24H after 0.1 to 0.2 millicuries i.v.): about 20,000 cpm per gram
